Experimental data as given in ChEMBL document CHEMBL4507261, “Data for DCP probe A-192621” (2021).

Columns and labels:
[1] = biological target: Prostaglandin G/H synthase 2 (Homo sapiens) (UniProt P35354); assay: COX2(h) Eurofins-Cerep enzyme and uptake assay; conditions: Compound concentration 10.0 uM
[2] = biological target: Acetylcholinesterase (Homo sapiens) (UniProt P22303); assay: Acetylcholinesterase (h) Eurofins-Cerep enzyme and uptake assay; conditions: Compound concentration 10.0 uM
[3] = biological target: Adenosine receptor A2a (Homo sapiens) (UniProt P29274); assay: A2A (h) Eurofins-Cerep binding assay; set-up: ligand concentration 6 nM; conditions: filed as agonist, Compound concentration 10.0 uM
[4] = biological target: Adenosine receptor A2b (Homo sapiens) (UniProt P29275); assay: A2B (h) Eurofins-Cerep binding assay; set-up: ligand concentration 5 nM; conditions: filed as antagonist, Compound concentration 10.0 uM
[5] = biological target: D(1A) dopamine receptor (Homo sapiens) (UniProt P21728); assay: D1 (h) Eurofins-Cerep binding assay; set-up: ligand concentration 0.3 nM; conditions: filed as antagonist, Compound concentration 10.0 uM
[6] = biological target: D(2) dopamine receptor (Homo sapiens) (UniProt P14416); assay: D2S (h) Eurofins-Cerep binding assay; set-up: ligand concentration 0.3 nM; conditions: filed as antagonist, Compound concentration 10.0 uM
[7] = biological target: Peroxisome proliferator-activated receptor gamma (Homo sapiens) (UniProt P37231); assay: PPARgamma (h) Eurofins-Cerep binding assay; set-up: ligand concentration 5 nM; conditions: filed as agonist, Compound concentration 10.0 uM
[8] = biological target: Estrogen receptor (Homo sapiens) (UniProt P03372); assay: Estrogen ER alpha (h) Eurofins-Cerep binding assay; set-up: ligand concentration 0.5 nM; conditions: filed as agonist, Compound concentration 10.0 uM
[9] = biological target: Vasoactive intestinal polypeptide receptor 1 (Homo sapiens) (UniProt P32241); assay: VPAC1 (VIP1) (h) Eurofins-Cerep binding assay; set-up: ligand concentration 0.04 nM; conditions: filed as agonist, Compound concentration 10.0 uM
[10] = tested on: Tyrosine-protein kinase ABL1 (Homo sapiens), P00519 [Q252H]; conditions: Compound concentration 1000.0 nM
[11] = biological target: Activin receptor type-1 (Homo sapiens) (UniProt Q04771); conditions: Compound concentration 1000.0 nM
[12] = biological target: Protein-tyrosine kinase 6 (Homo sapiens) (UniProt Q13882); conditions: Compound concentration 1000.0 nM
[13] = biological target: Cyclin-dependent kinase 2 (Homo sapiens) (UniProt P24941); conditions: Compound concentration 1000.0 nM
[14] = biological target: Macrophage colony-stimulating factor 1 receptor (Homo sapiens) (UniProt P07333); conditions: Compound concentration 1000.0 nM
[15] = biological target: Casein kinase I isoform delta (Homo sapiens) (UniProt P48730); conditions: Compound concentration 1000.0 nM
[16] = biological target: Serine/threonine-protein kinase DCLK1 (Homo sapiens) (UniProt O15075); conditions: Compound concentration 1000.0 nM
[17] = tested on: Epidermal growth factor receptor (Homo sapiens), P00533 [UNDEFINED MUTATION]; conditions: Compound concentration 1000.0 nM
[18] = biological target: Ephrin type-A receptor 1 (Homo sapiens) (UniProt P21709); conditions: Compound concentration 1000.0 nM
[19] = biological target: Mitogen-activated protein kinase 6 (Homo sapiens) (UniProt Q16659); conditions: Compound concentration 1000.0 nM
[20] = biological target: Vascular endothelial growth factor receptor 1 (Homo sapiens) (UniProt P17948); conditions: Compound concentration 1000.0 nM
[21] = tested on: Receptor-type tyrosine-protein kinase FLT3 (Homo sapiens), P36888 [K663Q]; conditions: Compound concentration 1000.0 nM
[22] = biological target: Tyrosine-protein kinase JAK2 (Homo sapiens) (UniProt O60674); conditions: Compound concentration 1000.0 nM
[23] = biological target: Mast/stem cell growth factor receptor Kit (Homo sapiens) (UniProt P10721); conditions: Compound concentration 1000.0 nM
[24] = biological target: Mitogen-activated protein kinase kinase kinase 15 (Homo sapiens) (UniProt Q6ZN16); conditions: Compound concentration 1000.0 nM
[25] = biological target: Mitogen-activated protein kinase kinase kinase 4 (Homo sapiens) (UniProt Q9Y6R4); conditions: Compound concentration 1000.0 nM
[26] = biological target: MAP/microtubule affinity-regulating kinase 3 (Homo sapiens) (UniProt P27448); conditions: Compound concentration 1000.0 nM
[27] = biological target: Serine/threonine-protein kinase 38 (Homo sapiens) (UniProt Q15208); conditions: Compound concentration 1000.0 nM
[28] = biological target: Serine/threonine-protein kinase Nek9 (Homo sapiens) (UniProt Q8TD19); conditions: Compound concentration 1000.0 nM
[29] = biological target: Mitogen-activated protein kinase kinase kinase 14 (Homo sapiens) (UniProt Q99558); conditions: Compound concentration 1000.0 nM
[30] = biological target: Serine/threonine-protein kinase NLK (Homo sapiens) (UniProt Q9UBE8); conditions: Compound concentration 1000.0 nM
[31] = biological target: Cyclin-dependent kinase 2 homolog (Plasmodium falciparum (isolate 3D7)) (UniProt P61075); conditions: Compound concentration 1000.0 nM
[32] = tested on: Phosphatidylinositol 4,5-bisphosphate 3-kinase catalytic subunit alpha isoform (Homo sapiens), P42336 [C420R]; conditions: Compound concentration 1000.0 nM
[33] = tested on: Phosphatidylinositol 4,5-bisphosphate 3-kinase catalytic subunit alpha isoform (Homo sapiens), P42336 [H1047L]; conditions: Compound concentration 1000.0 nM
[34] = tested on: Phosphatidylinositol 4,5-bisphosphate 3-kinase catalytic subunit alpha isoform (Homo sapiens), P42336 [M1043I]; conditions: Compound concentration 1000.0 nM
[35] = biological target: Phosphatidylinositol 4,5-bisphosphate 3-kinase catalytic subunit delta isoform (Homo sapiens) (UniProt O00329); conditions: Compound concentration 1000.0 nM
[36] = biological target: Serine/threonine-protein kinase N2 (Homo sapiens) (UniProt Q16513); conditions: Compound concentration 1000.0 nM
[37] = biological target: Serine/threonine-protein kinase PLK4 (Homo sapiens) (UniProt O00444); conditions: Compound concentration 1000.0 nM
[38] = biological target: cAMP-dependent protein kinase catalytic subunit PRKX (Homo sapiens) (UniProt P51817); conditions: Compound concentration 1000.0 nM
[39] = biological target: STE20-like serine/threonine-protein kinase (Homo sapiens) (UniProt Q9H2G2); conditions: Compound concentration 1000.0 nM
[40] = biological target: TGF-beta receptor type-1 (Homo sapiens) (UniProt P36897); conditions: Compound concentration 1000.0 nM
[41] = biological target: Non-receptor tyrosine-protein kinase TNK1 (Homo sapiens) (UniProt Q13470); conditions: Compound concentration 1000.0 nM
[42] = biological target: Serine/threonine-protein kinase TNNI3K (Homo sapiens) (UniProt Q59H18); conditions: Compound concentration 1000.0 nM
[43] = biological target: Non-receptor tyrosine-protein kinase TYK2 (Homo sapiens) (UniProt P29597); conditions: Compound concentration 1000.0 nM
[44] = biological target: Vascular endothelial growth factor receptor 2 (Homo sapiens) (UniProt P35968); conditions: Compound concentration 1000.0 nM
[45] = biological target: Mitogen-activated protein kinase kinase kinase 20 (Homo sapiens) (UniProt Q9NYL2); conditions: Compound concentration 1000.0 nM

Chain of Non-receptor tyrosine-protein kinase TNK1 (Homo sapiens) (Q13470 whole entry): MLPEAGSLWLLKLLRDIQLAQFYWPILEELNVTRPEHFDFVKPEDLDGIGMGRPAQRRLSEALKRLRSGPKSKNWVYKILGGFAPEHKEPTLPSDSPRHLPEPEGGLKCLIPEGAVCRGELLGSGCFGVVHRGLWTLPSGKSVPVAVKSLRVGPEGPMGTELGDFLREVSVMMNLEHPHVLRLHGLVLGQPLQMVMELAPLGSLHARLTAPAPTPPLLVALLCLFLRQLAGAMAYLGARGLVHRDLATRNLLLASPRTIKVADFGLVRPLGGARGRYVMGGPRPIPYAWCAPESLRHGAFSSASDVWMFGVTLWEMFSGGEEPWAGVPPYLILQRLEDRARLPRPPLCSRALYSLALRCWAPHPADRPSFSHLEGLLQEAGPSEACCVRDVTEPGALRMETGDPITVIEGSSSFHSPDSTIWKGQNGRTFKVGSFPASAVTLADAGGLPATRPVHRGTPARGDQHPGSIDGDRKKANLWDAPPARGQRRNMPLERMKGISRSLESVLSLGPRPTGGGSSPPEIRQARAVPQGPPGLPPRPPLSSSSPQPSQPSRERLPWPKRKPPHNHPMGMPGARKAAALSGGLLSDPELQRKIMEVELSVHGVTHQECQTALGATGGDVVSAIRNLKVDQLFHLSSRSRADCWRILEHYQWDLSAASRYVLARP
Chain of Ephrin type-A receptor 1 (Homo sapiens) (P21709 whole entry): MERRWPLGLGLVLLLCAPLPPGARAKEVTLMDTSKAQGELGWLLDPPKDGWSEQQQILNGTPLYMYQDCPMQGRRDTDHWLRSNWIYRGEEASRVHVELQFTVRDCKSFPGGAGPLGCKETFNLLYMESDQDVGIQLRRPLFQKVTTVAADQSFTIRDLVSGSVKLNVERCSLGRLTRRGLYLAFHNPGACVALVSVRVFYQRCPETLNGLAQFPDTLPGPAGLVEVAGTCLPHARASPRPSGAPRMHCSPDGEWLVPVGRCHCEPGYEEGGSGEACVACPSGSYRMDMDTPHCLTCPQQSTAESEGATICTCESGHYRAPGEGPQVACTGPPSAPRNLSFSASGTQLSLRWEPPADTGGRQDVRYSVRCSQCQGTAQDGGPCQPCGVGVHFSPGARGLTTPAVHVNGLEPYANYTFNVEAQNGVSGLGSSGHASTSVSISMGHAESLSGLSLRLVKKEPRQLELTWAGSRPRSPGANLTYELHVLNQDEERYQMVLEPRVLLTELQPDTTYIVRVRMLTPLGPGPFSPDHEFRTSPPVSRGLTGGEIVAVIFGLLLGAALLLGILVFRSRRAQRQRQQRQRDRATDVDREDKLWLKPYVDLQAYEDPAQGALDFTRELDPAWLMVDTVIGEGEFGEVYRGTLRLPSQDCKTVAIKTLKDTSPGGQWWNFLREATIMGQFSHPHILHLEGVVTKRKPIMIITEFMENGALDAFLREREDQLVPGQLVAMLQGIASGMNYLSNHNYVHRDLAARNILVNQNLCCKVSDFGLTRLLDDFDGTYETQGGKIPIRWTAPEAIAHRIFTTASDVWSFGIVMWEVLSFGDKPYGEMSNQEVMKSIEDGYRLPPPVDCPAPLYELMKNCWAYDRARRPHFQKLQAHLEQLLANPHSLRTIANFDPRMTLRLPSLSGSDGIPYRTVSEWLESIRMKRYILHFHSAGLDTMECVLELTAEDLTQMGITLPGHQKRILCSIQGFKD
Chain of Serine/threonine-protein kinase NLK (Homo sapiens) (Q9UBE8 whole entry): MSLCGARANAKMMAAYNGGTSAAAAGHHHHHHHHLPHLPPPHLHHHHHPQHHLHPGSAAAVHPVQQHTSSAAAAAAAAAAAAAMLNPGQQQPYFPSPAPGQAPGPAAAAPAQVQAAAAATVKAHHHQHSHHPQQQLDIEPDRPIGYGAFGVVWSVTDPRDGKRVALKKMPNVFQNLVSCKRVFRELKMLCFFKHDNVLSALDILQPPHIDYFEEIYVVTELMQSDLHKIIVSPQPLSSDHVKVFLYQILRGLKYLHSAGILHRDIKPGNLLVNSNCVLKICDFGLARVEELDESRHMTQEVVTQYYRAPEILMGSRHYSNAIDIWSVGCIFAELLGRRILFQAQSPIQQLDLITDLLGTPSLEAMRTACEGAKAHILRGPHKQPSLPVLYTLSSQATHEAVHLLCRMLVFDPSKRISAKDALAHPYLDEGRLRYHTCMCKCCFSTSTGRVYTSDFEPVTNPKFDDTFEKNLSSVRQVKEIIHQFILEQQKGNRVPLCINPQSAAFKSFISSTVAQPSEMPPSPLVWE
Chain of Mitogen-activated protein kinase 6 (Homo sapiens) (Q16659 whole entry): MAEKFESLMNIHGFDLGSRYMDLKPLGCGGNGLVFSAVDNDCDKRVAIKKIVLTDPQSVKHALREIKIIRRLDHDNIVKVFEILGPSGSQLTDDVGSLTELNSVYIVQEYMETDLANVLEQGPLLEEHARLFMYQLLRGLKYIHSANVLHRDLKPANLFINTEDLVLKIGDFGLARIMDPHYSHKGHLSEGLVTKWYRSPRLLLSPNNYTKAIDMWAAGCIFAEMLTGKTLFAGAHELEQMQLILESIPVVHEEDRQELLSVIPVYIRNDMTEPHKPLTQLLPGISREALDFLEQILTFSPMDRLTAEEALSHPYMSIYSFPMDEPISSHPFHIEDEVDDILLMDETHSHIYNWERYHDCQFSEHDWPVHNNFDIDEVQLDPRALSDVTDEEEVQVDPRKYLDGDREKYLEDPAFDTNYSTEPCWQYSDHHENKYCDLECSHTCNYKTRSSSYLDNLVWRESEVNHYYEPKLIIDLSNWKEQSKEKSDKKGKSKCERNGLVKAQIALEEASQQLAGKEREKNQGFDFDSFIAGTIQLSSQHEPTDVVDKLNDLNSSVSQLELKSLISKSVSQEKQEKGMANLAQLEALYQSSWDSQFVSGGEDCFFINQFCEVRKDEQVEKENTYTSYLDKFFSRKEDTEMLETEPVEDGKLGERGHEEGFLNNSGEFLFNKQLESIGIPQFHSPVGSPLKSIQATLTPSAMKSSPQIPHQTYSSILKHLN
Chain of Mast/stem cell growth factor receptor Kit (Homo sapiens) (P10721 whole entry): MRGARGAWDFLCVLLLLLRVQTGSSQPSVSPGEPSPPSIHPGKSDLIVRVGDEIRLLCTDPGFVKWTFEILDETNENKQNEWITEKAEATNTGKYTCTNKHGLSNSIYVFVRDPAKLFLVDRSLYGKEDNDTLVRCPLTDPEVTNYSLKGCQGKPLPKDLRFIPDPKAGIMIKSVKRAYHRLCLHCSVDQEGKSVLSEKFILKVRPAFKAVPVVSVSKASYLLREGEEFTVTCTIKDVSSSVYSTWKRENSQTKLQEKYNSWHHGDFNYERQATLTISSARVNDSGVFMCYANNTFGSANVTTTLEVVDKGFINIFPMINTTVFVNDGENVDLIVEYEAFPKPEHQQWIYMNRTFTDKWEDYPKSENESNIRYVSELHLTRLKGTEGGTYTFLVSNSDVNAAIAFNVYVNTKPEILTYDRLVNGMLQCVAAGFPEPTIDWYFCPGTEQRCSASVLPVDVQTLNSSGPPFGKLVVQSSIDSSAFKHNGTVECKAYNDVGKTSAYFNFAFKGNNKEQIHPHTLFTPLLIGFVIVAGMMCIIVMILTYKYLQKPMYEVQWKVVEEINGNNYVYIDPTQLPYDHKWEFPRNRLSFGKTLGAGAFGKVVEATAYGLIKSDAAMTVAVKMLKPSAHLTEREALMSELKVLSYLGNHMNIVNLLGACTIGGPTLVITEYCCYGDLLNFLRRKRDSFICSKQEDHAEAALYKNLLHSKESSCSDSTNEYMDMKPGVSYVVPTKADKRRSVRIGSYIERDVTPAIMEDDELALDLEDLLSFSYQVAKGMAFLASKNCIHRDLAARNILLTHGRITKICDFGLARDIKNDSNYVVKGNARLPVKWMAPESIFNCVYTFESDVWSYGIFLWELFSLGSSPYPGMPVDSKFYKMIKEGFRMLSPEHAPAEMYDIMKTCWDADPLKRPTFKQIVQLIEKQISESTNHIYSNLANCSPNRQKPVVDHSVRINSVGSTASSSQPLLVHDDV
Chain of Protein-tyrosine kinase 6 (Homo sapiens) (Q13882 whole entry, looked up): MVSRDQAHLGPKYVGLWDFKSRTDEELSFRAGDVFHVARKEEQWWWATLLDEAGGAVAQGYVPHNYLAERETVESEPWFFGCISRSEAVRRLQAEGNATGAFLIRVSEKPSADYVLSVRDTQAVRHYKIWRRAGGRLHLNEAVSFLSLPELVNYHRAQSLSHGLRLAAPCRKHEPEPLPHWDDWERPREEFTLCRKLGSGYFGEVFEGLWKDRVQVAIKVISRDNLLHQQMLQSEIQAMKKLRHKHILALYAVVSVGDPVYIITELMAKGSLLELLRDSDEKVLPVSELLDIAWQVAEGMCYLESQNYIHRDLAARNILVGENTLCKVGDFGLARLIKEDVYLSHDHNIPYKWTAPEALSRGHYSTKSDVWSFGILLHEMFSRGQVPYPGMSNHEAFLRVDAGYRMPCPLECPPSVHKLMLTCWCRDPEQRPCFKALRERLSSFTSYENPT
Chain of Casein kinase I isoform delta (Homo sapiens) (P48730 whole entry, looked up, canonical isoform): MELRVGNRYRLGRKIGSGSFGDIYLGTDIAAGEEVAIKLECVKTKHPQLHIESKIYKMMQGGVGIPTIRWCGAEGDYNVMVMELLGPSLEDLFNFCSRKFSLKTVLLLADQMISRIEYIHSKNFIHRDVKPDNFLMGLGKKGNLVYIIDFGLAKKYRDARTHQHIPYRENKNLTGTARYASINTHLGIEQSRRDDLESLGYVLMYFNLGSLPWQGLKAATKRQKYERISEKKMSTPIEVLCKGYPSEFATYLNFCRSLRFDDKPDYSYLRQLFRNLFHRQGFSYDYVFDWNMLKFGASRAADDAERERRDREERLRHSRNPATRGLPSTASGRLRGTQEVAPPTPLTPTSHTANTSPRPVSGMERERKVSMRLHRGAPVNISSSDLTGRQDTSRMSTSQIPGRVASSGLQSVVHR
Chain of Cyclin-dependent kinase 2 homolog (Plasmodium falciparum (isolate 3D7)) (P61075 whole entry, canonical isoform): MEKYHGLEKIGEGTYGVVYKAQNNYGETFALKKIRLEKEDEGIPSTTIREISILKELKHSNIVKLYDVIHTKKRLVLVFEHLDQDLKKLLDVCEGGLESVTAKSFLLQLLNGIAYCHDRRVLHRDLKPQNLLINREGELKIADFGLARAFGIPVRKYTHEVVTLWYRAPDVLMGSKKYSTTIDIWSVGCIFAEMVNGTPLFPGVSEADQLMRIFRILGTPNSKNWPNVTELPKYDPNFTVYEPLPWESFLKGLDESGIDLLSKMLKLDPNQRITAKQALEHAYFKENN

Compound `CCCOc1ccc([C@H]2[C@H](C(=O)O)[C@@H](c3ccc4c(c3)OCO4)CN2CC(=O)Nc2c(CC)cccc2CC)cc1` [A-192621] has a % Inhibition of Control Values (Mean n=2) [1] of 44%, a % Inhibition of Control Values (Mean n=2) [2] of 7% and a % Inhibition of Control Specific Binding (Mean n=2) [3] of -4.8%. The % Inhibition of Control Specific Binding (Mean n=2) [4] was -6.1%, the % Inhibition of Control Specific Binding (Mean n=2) [5] was -2.2% and the % Inhibition of Control Specific Binding (Mean n=2) [6] was 2.6%. It also gave a % Inhibition of Control Specific Binding (Mean n=2) [7] of 40.3%, a % Inhibition of Control Specific Binding (Mean n=2) [8] of -1.1% and a % Inhibition of Control Specific Binding (Mean n=2) [9] of -7.7%. It also gave a residual activity [10] of 86%, a residual activity [11] of 100% and a residual activity [12] of 84%. The residual activity [13] was 87%, the residual activity [14] was 90% and the residual activity [15] was 80%. For the same compound, the residual activity [16] was 75%, the residual activity [17] was 81% and the residual activity [18] was 86%. For the same compound, the residual activity [19] was 92%, the residual activity [20] was 97% and the residual activity [21] was 100%. For the same compound, the residual activity [22] was 53%, the residual activity [23] was 85% and the residual activity [24] was 73%. For the same compound, the residual activity [25] was 88%, the residual activity [26] was 100% and the residual activity [27] was 77%. For the same compound, the residual activity [28] was 95%, the residual activity [29] was 85% and the residual activity [30] was 100%. The residual activity [31] was 87%, the residual activity [32] was 95% and the residual activity [33] was 85%. For the same compound, the residual activity [34] was 91%, the residual activity [35] was 75% and the residual activity [36] was 100%. For the same compound, the residual activity [37] was 78%, the residual activity [38] was 91% and the residual activity [39] was 100%. The residual activity [40] was 64%, the residual activity [41] was 100% and the residual activity [42] was 100%. For the same compound, the residual activity [43] was 51%, the residual activity [44] was 77% and the residual activity [45] was 90%.
`CCCOc1ccc([C@@H]2[C@@H](C(=O)O)[C@H](c3ccc4c(c3)OCO4)CN2CC(=O)Nc2c(CC)cccc2CC)cc1` [A-1806262] gave a % Inhibition of Control Values (Mean n=2) [1] of 34%, a % Inhibition of Control Values (Mean n=2) [2] of 4% and a % Inhibition of Control Specific Binding (Mean n=2) [3] of -12.4%. For the same compound, the % Inhibition of Control Specific Binding (Mean n=2) [4] was -8.6%, the % Inhibition of Control Specific Binding (Mean n=2) [5] was -0.2% and the % Inhibition of Control Specific Binding (Mean n=2) [6] was 1.8%. For the same compound, the % Inhibition of Control Specific Binding (Mean n=2) [7] was 67%, the % Inhibition of Control Specific Binding (Mean n=2) [8] was -0.8% and the % Inhibition of Control Specific Binding (Mean n=2) [9] was -1.5%. The residual activity [10] was 99%, the residual activity [11] was 95% and the residual activity [12] was 83%. It also gave a residual activity [13] of 87%, a residual activity [14] of 100% and a residual activity [15] of 83%. It also gave a residual activity [16] of 80%, a residual activity [17] of 58% and a residual activity [18] of 100%. For the same compound, the residual activity [19] was 59%, the residual activity [20] was 94% and the residual activity [21] was 100%. For the same compound, the residual activity [22] was 79%, the residual activity [23] was 90% and the residual activity [24] was 99%. For the same compound, the residual activity [25] was 99%, the residual activity [26] was 100% and the residual activity [27] was 83%. It also gave a residual activity [28] of 100%, a residual activity [29] of 82% and a residual activity [30] of 100%. For the same compound, the residual activity [31] was 97%, the residual activity [32] was 100% and the residual activity [33] was 83%. The residual activity [34] was 91%, the residual activity [35] was 90% and the residual activity [36] was 100%. For the same compound, the residual activity [37] was 82%, the residual activity [38] was 89% and the residual activity [39] was 100%. For the same compound, the residual activity [40] was 64%, the residual activity [41] was 93% and the residual activity [42] was 84%. It also gave a residual activity [43] of 74%, a residual activity [44] of 72% and a residual activity [45] of 100%.
